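Following 48 hours of exposure in 96-well plates, responses at five concentrations were used to interpolate endpoints linearly. The concentration for 50% growth inhibition is given as GI50. The concentration for full growth arrest is given as TGI.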 Where only a bound is given, the exact number is not on record here.

The subject of one test is HOP-62 NSCLC. Briefly: NCI tumour cell line growth inhibition, 48 h.
Compound `CN(C)S(=O)(=O)Nc1ccccn1` yielded a TGI of more than 100 µM.
On the same count and under the same terms, the same measure for `CN(C)CCNC(=O)c1cccc2nc3c(Cl)cccc3nc12`: 26.3 µM.
`COc1nc2c(cc1S(=O)(=O)c1ccccc1)CCc1c-2cnn1-c1ccccc1Cl`: the GI50 was more than 100 µM and the TGI was more than 100 µM.

A further test concerns UO-31 renal. In words: NCI tumour cell line growth inhibition, 48 h.
On to `NC1(CCCCCCCCCCC(=O)O)CNCCNCCNCCNC1`, for which the TGI is more than 100 µM.
For `C1CN2N3CCCC23C1` (stereo not drawn), the TGI is more than 100 µM.
In the case of `CC[n+]1ccc2c(c1)C(=O)c1nccc3c1c-2nc1ccccc13`, the GI50 was 0.948 µM and the TGI was determined as 8.42 µM.
In the case of `NNC(=O)c1cnn(-c2ccnc3c(C(F)(F)F)cccc23)c1N`, the GI50 was more than 100 µM and the TGI is more than 100 µM.
The compound `CC(=O)OCCc1cccnc1/C=N/O` came in with a TGI of more than 100 µM.
For the compound `Cc1c(Cl)cccc1Nc1ncccc1C(=O)O`, the GI50 was 55.7 µM and the TGI is more than 100 µM.
For `CCC1CCC2CCCC(C)N12` (stereo not drawn), the TGI is more than 100 µM.
`CN(C)c1ccc(/C=C2\C[N+](C)(C)C/C(=C\c3ccc(N(C)C)cc3)C2=O)cc1` had a TGI of more than 100 µM.
In the case of `O=C1CC[C@H]2CNC(=O)C[C@H]2C1`, the TGI was more than 100 µM.
Turning to `C#CC(C)(C)Oc1cc(O)c2c(=O)c3ccccc3n(C)c2c1`, the TGI was more than 100 µM.
Compound `COc1cc2c(NCCCCCCO[N+](=O)[O-])ncnc2c(OC)c1OC` had a TGI of 21.2 µM.
In turn, `CN1CCCNCCN(CCc2ccccn2)CCCN(C)CC1` gave a TGI of more than 100 µM.
As for `N#Cc1cnn2ccn(C3OC(COC(=O)c4ccccc4)C(OC(=O)c4ccccc4)C3OC(=O)c3ccccc3)c12` (stereo not drawn), the TGI is more than 21.5 µM.
`C[C@]12CCC(=O)C=C1CC[C@@H]1C2CC[C@]2(C)NC(=O)C(C#N)CC12` (stereo partly drawn) showed a TGI of more than 100 µM.
The compound `O=C(Nc1ccccc1[N+](=O)[O-])c1ccccc1` yielded a TGI of more than 100 µM.
With `COc1cc2c(cc1O)[C@H](Cc1ccc(Oc3cc(C[C@H]4c5cc(OC)c(OC)cc5CCN4C)ccc3OC)cc1)NCC2`, the TGI was 21.2 µM.
`Fc1ccc(-c2nn(-c3ccccc3)cc2-c2nc3ccccc3o2)cc1`: the GI50 is 1.67 µM and the TGI is 35.1 µM.
The compound `CN(C)S(=O)(=O)Nc1ccccn1` showed a TGI of more than 100 µM.
`CN(C)CCNC(=O)c1cccc2nc3c(Cl)cccc3nc12` returned a TGI of more than 40.5 µM.
On to `COc1nc2c(cc1S(=O)(=O)c1ccccc1)CCc1c-2cnn1-c1ccccc1Cl`, for which the GI50 was 3.13 µM and the TGI was more than 100 µM.

The test system of a further test is CCRF-CEM leukemia. In words: NCI tumour cell line growth inhibition, 48 h.
`NC1(CCCCCCCCCCC(=O)O)CNCCNCCNCCNC1` returned a TGI of more than 100 µM.
Consider `C1CN2N3CCCC23C1` (stereo not drawn), for which the TGI was more than 100 µM.
Regarding `CC[n+]1ccc2c(c1)C(=O)c1nccc3c1c-2nc1ccccc13`, the GI50 was 1.39 µM and the TGI is 14.4 µM.
For the compound `NNC(=O)c1cnn(-c2ccnc3c(C(F)(F)F)cccc23)c1N`, the GI50 is more than 100 µM and the TGI is more than 100 µM.
`CC(=O)OCCc1cccnc1/C=N/O` returned a TGI of more than 100 µM.
With `Cc1c(Cl)cccc1Nc1ncccc1C(=O)O`, the GI50 is 64.2 µM and the TGI was more than 100 µM.
Turning to `CCC1CCC2CCCC(C)N12` (stereo not drawn), the TGI is more than 100 µM.
In the case of `CN(C)c1ccc(/C=C2\C[N+](C)(C)C/C(=C\c3ccc(N(C)C)cc3)C2=O)cc1`, the TGI worked out at 38.9 µM.
The compound `O=C1CC[C@H]2CNC(=O)C[C@H]2C1` had a TGI of more than 100 µM.
Regarding `C#CC(C)(C)Oc1cc(O)c2c(=O)c3ccccc3n(C)c2c1`, the TGI was more than 100 µM.
As to `COc1cc2c(NCCCCCCO[N+](=O)[O-])ncnc2c(OC)c1OC`, the TGI was 67.8 µM.
Compound `CN1CCCNCCN(CCc2ccccn2)CCCN(C)CC1` showed a TGI of more than 60 µM.
Consider `COc1ccc(CNC(=O)COc2ccc(/C=N/Nc3nc4ccccc4s3)cc2)cc1`, for which the GI50 was more than 100 µM and the TGI was more than 100 µM.
In the case of `N#Cc1cnn2ccn(C3OC(COC(=O)c4ccccc4)C(OC(=O)c4ccccc4)C3OC(=O)c3ccccc3)c12` (stereo not drawn), the TGI was more than 21.5 µM.
`C[C@]12CCC(=O)C=C1CC[C@@H]1C2CC[C@]2(C)NC(=O)C(C#N)CC12` (stereo partly drawn) yielded a TGI of more than 100 µM.
On to `CN(C)c1ccc2c(c1)oc(=O)c1ccccc12`, for which the TGI came out at 27.9 µM.
Compound `COC(=O)C(CC(=O)c1cc2c(cc1I)OCO2)Cc1cc(OC)c(OC)c(OC)c1I` (stereo not drawn) displayed a TGI of more than 100 µM.
Same read-out and setting: as for `COc1cc2c(cc1O)[C@H](Cc1ccc(Oc3cc(C[C@H]4c5cc(OC)c(OC)cc5CCN4C)ccc3OC)cc1)NCC2`, the figure is 37 µM.
With `Fc1ccc(-c2nn(-c3ccccc3)cc2-c2nc3ccccc3o2)cc1`, the GI50 was 3.43 µM and the TGI was more than 100 µM.
On the same counts, the results for `COc1nc2c(cc1S(=O)(=O)c1ccccc1)CCc1c-2cnn1-c1ccccc1Cl` are 7.84 µM and more than 100 µM.

For a further test, the system named is SF-295 CNS. In words: NCI tumour cell line growth inhibition, 48 h.
For `NC1(CCCCCCCCCCC(=O)O)CNCCNCCNCCNC1`, the TGI was more than 100 µM.
Compound `C1CN2N3CCCC23C1` (stereo not drawn) came in with a TGI of more than 100 µM.
Take `CC[n+]1ccc2c(c1)C(=O)c1nccc3c1c-2nc1ccccc13`: the GI50 was 0.634 µM and the TGI is 3.76 µM.
Take `NNC(=O)c1cnn(-c2ccnc3c(C(F)(F)F)cccc23)c1N`: the GI50 is more than 100 µM and the TGI was more than 100 µM.
For the compound `CC(=O)OCCc1cccnc1/C=N/O`, the TGI is more than 100 µM.
Take `Cc1c(Cl)cccc1Nc1ncccc1C(=O)O`: the GI50 was 16.7 µM and the TGI was 76.7 µM.
The compound `CCC1CCC2CCCC(C)N12` (stereo not drawn) came in with a TGI of more than 100 µM.
Compound `CN(C)c1ccc(/C=C2\C[N+](C)(C)C/C(=C\c3ccc(N(C)C)cc3)C2=O)cc1` returned a TGI of more than 100 µM.
On to `O=C1CC[C@H]2CNC(=O)C[C@H]2C1`, for which the TGI is more than 100 µM.
Same read-out and setting: as for `C#CC(C)(C)Oc1cc(O)c2c(=O)c3ccccc3n(C)c2c1`, the figure is more than 100 µM.

These data come from PubChem BioAssay (NCI).
